Structures are written as SMILES. The source made the active and inactive calls. The rule behind the calls is not given here.

Series [1] in a line: Antioxidant activity assessed as potassium ferric cyanide ion reducing power at 100 uM after 20 mins. The series is classed as functional.
In series [2] the test system is Radical scavenging activity.
Description: Antioxidant activity assessed as DPPH free radical scavenging activity after 30 mins
Series [3] has as its target T1, Tyrosinase (Homo sapiens) (UniProt P14679).
T1 sequence (whole entry): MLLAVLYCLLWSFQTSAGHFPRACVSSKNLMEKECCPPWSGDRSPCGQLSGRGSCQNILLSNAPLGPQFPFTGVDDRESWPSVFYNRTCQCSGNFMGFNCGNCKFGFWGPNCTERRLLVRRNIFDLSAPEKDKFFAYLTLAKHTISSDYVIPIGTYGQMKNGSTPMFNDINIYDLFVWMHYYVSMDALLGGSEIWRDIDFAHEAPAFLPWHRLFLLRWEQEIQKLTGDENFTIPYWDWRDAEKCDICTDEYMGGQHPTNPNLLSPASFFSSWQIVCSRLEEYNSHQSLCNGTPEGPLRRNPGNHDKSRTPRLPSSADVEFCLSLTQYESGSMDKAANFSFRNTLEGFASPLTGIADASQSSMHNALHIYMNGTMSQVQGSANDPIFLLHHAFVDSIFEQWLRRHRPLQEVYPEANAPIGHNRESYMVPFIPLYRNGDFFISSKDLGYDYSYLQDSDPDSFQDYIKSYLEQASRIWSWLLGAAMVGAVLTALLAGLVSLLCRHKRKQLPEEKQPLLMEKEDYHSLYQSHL
The experiment in a line: Inhibition of tyrosinase in human HEMn-MP assessed as oxidation of L-DOPA to dopaquinone at 100 uM after 2 days by spectrophotometric analysis.

Series [4] addresses T2, Tyrosinase (Homo sapiens, UniProt P14679).
T2 sequence (P14679 whole entry): T1 sequence (whole entry)
In words: Inhibition of tyrosinase in human HEMn-MP assessed as reduction of melanin level after 2 days by spectrophotometric analysis.

Series [5] in a line: Cytotoxicity against human HEMn-MP after 48 hrs by MTT assay. To be noted: HEMn-MP cells.
The nature of series [6]: Cytotoxicity against human keratinocytes after 48 hrs by MTT assay. The series is classed as cell-based, Keratinocyte.
The nature of series [7]: Cytotoxicity against human fibroblasts after 48 hrs by MTT assay. The series is classed as cell-based, Fibroblast.
Series [8] can be described thus: Cytotoxicity against human HEMn-MP assessed as cell viability at 0.01 to 10 uM after 48 hrs by MTT assay. To be noted: HEMn-MP cells, read-out: Activity.
A short description of series [9]: Cytotoxicity against human HEMn-MP assessed as cell viability at 200 uM after 48 hrs by MTT assay.
Series [10] can be described thus: Cytotoxicity against human HEMn-MP assessed as cell death at 100 uM after 48 hrs by MTT assay.
For series [11], the species on record is Homo sapiens. In words: Induction of dendritic to bipolar morphology changes in human HEMn-MP at 100 uM after 48 hrs by phase contrast microscopic analysis. In kind it is functional.
The species entered for series [12] is Homo sapiens. The experiment in a line: Induction of dendritic to bipolar morphology changes in human HEMn-MP at 10 uM after 12 to 60 hrs by phase contrast microscopic analysis. In kind it is functional.
For series [13], the species on record is Homo sapiens. The experiment in a line: Induction of dendritic to bipolar morphology changes in human HEMn-MP at 200 uM after 12 to 60 hrs by phase contrast microscopic analysis. In kind it is functional.
The species named for series [14] is Homo sapiens. In words: Reduction of melanin production in human HEMn-MP at 10 uM after 12 to 60 hrs by phase contrast microscopic analysis. The series is classed as functional.
The species entered for series [15] is Homo sapiens. The experiment in a line: Reduction of melanin production in human HEMn-MP at 200 uM after 12 to 60 hrs by phase contrast microscopic analysis. In kind it is functional.
Series [16] is described as follows: Cytotoxicity against human HEMn-MP assessed as cell death at 10 to 200 uM after 2 to 60 hrs by phase contrast microscopic analysis.
Series [17] is described as follows: Cytotoxicity against human fibroblasts assessed as cell viability at 100 uM after 48 hrs by MTT assay. The following applies: read-out: Activity. The series is classed as cell-based, Fibroblast.
In series [18] the test system is Fibroblast. The experiment in a line: Cytotoxicity against human fibroblasts assessed as cell viability at 200 uM after 48 hrs by MTT assay. In kind it is cell-based.
Series [19] can be described thus: Cytotoxicity against human keratinocytes assessed as cell viability at 10 uM after 48 hrs by MTT assay. The series is classed as cell-based. The following applies: keratinocyte.
Series [20] deals with Fibroblast. The experiment in a line: Cytotoxicity against human fibroblasts assessed as cell viability at 10 uM after 48 hrs by MTT assay. The series is classed as cell-based.
In series [21] the target is T3, Tyrosinase (Agaricus bisporus, UniProt O42713).
T3 sequence (O42713 whole entry): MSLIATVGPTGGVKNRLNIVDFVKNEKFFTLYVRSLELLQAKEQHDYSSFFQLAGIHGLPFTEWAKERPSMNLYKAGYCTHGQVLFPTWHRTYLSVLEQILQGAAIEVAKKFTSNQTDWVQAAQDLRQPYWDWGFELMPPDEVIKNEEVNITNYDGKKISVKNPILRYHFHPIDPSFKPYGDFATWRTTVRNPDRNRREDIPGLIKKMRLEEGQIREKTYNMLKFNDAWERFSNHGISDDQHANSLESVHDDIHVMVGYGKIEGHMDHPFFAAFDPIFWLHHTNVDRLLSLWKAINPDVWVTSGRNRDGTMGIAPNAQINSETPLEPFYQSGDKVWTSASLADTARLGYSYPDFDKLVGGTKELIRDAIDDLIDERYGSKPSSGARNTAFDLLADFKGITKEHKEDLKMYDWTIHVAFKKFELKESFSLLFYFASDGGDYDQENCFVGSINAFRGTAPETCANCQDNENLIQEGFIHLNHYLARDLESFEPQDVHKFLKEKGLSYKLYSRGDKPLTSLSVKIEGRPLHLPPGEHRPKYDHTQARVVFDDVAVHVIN
Description: Inhibition of mushroom tyrosinase after 30 mins by spectrophotometric analysis

For `COc1ccc(O)c(C(C)(C)C)c1.COc1ccc(O)cc1C(C)(C)C`, the OD in series [1] came to 1.28.

`O=C1O[C@H]([C@@H](O)CO)C(O)=C1O` [ASCORBIC ACID] gave a 50% inhibitory concentration (IC50) in series [2] of 52.1 µM.

For `O=CN1CCc2cc3c(c4c2[C@H]1Cc1ccccc1-4)OCO3`, the result (in [3]; in the series listed under Homo sapiens [11]; in the series filed under Homo sapiens [12]; in the series listed under Homo sapiens [13]; in the series filed under Homo sapiens [14]; in the series listed under Homo sapiens [15]) was Active. Moreover, the EC50 on Tyrosinase [4] was 90 µM. Moreover, the CC50 at 48 h in series [5] was found to be 735 µM; in series [6] it was 355 µM; in [7] it was 325 µM. The viability at 48 h, 10 µM in [8] was 90%. Also, the Activity entry is “Toxic” in [9]; “Toxic” in [10]; “Non-toxic” in series [16]; “Non-toxic” with Fibroblast [18]; “Non-toxic” in series [19]; “Non-toxic” with Fibroblast [20]. For the same compound, the viability at 48 h, 100 µM in series [17] worked out at 70%. Also, the OD in series [1] was 0.56. Besides, the half-maximal inhibitory concentration (IC50) against Tyrosinase [21] worked out at 74.3 µM; in [2], 121 µM.

(Values after ChEMBL document CHEMBL1177668, “(-)-N-Formylanonaine from Michelia alba as a human tyrosinase inhibitor and antioxidant” (Bioorg Med Chem, 2010).)
